Source: ChEMBL document CHEMBL5465560, “Selectivity Literature for EUbOPEN Chemogenomic Library” (2024)

Legend:
[1] = target: T1, cGMP-dependent protein kinase 2 (Homo sapiens) (UniProt Q13237); settings: at 10 µM
T1 sequence (whole entry): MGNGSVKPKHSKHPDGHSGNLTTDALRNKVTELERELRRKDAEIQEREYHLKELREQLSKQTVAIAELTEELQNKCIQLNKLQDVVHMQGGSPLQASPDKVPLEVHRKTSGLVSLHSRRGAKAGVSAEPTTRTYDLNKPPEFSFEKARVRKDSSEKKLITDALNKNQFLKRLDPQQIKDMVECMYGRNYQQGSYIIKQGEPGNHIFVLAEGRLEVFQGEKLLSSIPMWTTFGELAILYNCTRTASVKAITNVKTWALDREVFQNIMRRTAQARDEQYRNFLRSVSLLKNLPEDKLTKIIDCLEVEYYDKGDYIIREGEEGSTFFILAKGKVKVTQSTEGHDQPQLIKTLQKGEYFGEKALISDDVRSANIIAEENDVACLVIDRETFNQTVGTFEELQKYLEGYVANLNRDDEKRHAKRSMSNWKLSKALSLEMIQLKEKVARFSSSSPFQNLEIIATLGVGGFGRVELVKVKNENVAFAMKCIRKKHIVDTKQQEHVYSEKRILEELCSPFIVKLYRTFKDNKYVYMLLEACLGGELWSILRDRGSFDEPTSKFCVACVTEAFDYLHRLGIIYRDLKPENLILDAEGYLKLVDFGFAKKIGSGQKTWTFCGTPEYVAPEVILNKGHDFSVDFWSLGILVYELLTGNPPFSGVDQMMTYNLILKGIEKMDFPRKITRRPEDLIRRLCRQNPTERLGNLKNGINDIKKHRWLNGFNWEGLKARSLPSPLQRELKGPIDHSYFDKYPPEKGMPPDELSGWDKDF

[2] = target: Vascular endothelial growth factor receptor 3 (Homo sapiens, UniProt P35916); assay: Selectivity interaction (KinomeScan (DiscoverX)) EUB0000699a FLT4; settings: at 10 µM
[3] = target: Epithelial discoidin domain-containing receptor 1 (Homo sapiens) (UniProt Q08345); assay: Selectivity interaction (KinomeScan (DiscoverX)) EUB0000229b DDR1; settings: at 10 µM
[4] = target: Serine/threonine-protein kinase N1 (Homo sapiens, UniProt Q16512); assay: Selectivity interaction (Kinase panel (KiNativ target engagement assay in Jurkat cells)) EUB0001635a PKN1; format: cell-based; settings: Selectivity number of off-targets 0.0, Selectivity number of targets 233.0, Source Knowledge https://www.sciencedirect.com/science/article/pii/S2451945619300674?via%3Dihub, at 1 µM
[5] = target: Mitogen-activated protein kinase kinase kinase 9 (Homo sapiens) (UniProt P80192); settings: at 10 µM
[6] = target: Glycogen synthase kinase-3 beta (Homo sapiens, UniProt P49841); assay: Selectivity interaction (KinomeScan (DiscoverX)) EUB0000607a GSK3B; settings: at 10 µM
[7] = target: T2, Discoidin domain-containing receptor 2 (Homo sapiens) (UniProt Q16832); settings: at 10 µM
T2 sequence (whole entry): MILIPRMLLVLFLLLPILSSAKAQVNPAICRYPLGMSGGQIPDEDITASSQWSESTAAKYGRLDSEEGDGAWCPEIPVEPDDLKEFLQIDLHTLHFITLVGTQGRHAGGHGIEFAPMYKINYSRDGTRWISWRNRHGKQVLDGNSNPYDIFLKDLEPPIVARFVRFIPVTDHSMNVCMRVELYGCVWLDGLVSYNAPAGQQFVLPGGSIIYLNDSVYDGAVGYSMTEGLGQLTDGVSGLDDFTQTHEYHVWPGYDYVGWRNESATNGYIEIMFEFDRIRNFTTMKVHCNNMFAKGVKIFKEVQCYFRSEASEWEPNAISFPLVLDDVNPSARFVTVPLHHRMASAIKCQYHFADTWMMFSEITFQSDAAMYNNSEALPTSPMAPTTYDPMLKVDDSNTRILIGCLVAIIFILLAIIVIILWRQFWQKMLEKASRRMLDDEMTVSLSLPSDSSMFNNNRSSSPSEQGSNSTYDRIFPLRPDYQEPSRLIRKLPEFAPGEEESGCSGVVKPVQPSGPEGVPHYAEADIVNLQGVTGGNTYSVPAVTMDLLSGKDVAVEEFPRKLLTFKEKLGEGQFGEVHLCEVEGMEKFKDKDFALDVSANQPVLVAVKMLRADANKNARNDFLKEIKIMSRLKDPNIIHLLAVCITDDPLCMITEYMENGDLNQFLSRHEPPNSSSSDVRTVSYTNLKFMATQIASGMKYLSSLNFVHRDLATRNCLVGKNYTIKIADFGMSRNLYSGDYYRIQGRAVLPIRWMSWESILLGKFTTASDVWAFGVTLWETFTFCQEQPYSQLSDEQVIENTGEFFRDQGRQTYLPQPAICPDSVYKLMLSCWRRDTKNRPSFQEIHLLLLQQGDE

[8] = target: Vascular endothelial growth factor receptor 1 (Homo sapiens) (UniProt P17948); assay: Selectivity interaction (Kinase panel (Eurofins)) EUB0001564a FLT1; settings: at 1 µM
[9] = target: Rho-associated protein kinase 2 (Homo sapiens, UniProt O75116); assay: Selectivity interaction (KinomeScan (DiscoverX)) EUB0001619a ROCK2; settings: at 1 µM
[10] = target: T3, Serine/threonine-protein kinase TBK1 (Homo sapiens) (UniProt Q9UHD2); assay: Selectivity interaction (ActivX KiNativ screen (ex vivo kinase selectivity in human PBMCs)) EUB0001619a TBK1; format: cell-based; settings: PBMC, at 1 µM
T3 sequence (whole entry): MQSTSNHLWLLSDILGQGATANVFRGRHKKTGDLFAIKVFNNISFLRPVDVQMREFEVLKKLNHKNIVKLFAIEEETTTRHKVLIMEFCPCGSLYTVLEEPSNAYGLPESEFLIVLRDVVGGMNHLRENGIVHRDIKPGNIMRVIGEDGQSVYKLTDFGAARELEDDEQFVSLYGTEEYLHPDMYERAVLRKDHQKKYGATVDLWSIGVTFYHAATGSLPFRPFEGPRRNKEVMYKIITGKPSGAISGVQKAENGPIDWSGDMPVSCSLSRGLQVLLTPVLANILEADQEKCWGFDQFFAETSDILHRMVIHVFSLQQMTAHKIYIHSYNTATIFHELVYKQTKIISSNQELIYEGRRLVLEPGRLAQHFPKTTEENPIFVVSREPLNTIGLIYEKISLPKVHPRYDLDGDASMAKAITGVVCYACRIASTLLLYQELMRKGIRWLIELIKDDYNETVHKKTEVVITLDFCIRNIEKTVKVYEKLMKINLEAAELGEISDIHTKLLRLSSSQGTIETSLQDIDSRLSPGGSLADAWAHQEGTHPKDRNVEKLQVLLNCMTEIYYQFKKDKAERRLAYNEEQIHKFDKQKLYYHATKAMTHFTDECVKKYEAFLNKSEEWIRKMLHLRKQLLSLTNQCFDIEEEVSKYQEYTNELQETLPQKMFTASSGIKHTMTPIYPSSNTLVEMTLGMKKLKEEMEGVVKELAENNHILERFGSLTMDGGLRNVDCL

Chain of Mitogen-activated protein kinase kinase kinase 9 (Homo sapiens) (P80192 whole entry, looked up): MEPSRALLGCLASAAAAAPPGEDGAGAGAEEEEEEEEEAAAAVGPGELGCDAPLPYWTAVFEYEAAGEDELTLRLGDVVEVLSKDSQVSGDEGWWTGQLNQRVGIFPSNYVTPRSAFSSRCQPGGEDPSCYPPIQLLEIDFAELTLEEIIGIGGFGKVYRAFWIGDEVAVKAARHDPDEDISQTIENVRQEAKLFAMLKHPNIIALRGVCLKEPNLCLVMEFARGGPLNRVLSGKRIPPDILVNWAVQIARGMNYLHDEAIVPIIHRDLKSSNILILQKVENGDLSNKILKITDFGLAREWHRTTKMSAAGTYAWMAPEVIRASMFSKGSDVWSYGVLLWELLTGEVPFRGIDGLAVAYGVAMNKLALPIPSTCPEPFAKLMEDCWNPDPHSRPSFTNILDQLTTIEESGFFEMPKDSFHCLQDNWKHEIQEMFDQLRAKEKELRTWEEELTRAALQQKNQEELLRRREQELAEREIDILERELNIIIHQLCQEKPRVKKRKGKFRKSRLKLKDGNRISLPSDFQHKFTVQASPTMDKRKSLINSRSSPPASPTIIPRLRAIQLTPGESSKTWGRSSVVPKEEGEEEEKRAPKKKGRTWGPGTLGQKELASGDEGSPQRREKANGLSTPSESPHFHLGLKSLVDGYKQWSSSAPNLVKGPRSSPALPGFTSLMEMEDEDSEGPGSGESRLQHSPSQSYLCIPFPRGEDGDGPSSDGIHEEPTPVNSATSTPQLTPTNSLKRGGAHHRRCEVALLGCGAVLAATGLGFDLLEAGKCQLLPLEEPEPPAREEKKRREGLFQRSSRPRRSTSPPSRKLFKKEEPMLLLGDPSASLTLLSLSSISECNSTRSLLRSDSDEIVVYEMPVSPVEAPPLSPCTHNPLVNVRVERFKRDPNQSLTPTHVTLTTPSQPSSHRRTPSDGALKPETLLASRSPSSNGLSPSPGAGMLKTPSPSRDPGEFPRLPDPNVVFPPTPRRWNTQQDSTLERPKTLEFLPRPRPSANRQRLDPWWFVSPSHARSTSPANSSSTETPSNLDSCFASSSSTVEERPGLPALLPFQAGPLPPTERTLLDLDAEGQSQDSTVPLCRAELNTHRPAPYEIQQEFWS
Chain of Vascular endothelial growth factor receptor 3 (P35916 whole entry, the tested form may be a part): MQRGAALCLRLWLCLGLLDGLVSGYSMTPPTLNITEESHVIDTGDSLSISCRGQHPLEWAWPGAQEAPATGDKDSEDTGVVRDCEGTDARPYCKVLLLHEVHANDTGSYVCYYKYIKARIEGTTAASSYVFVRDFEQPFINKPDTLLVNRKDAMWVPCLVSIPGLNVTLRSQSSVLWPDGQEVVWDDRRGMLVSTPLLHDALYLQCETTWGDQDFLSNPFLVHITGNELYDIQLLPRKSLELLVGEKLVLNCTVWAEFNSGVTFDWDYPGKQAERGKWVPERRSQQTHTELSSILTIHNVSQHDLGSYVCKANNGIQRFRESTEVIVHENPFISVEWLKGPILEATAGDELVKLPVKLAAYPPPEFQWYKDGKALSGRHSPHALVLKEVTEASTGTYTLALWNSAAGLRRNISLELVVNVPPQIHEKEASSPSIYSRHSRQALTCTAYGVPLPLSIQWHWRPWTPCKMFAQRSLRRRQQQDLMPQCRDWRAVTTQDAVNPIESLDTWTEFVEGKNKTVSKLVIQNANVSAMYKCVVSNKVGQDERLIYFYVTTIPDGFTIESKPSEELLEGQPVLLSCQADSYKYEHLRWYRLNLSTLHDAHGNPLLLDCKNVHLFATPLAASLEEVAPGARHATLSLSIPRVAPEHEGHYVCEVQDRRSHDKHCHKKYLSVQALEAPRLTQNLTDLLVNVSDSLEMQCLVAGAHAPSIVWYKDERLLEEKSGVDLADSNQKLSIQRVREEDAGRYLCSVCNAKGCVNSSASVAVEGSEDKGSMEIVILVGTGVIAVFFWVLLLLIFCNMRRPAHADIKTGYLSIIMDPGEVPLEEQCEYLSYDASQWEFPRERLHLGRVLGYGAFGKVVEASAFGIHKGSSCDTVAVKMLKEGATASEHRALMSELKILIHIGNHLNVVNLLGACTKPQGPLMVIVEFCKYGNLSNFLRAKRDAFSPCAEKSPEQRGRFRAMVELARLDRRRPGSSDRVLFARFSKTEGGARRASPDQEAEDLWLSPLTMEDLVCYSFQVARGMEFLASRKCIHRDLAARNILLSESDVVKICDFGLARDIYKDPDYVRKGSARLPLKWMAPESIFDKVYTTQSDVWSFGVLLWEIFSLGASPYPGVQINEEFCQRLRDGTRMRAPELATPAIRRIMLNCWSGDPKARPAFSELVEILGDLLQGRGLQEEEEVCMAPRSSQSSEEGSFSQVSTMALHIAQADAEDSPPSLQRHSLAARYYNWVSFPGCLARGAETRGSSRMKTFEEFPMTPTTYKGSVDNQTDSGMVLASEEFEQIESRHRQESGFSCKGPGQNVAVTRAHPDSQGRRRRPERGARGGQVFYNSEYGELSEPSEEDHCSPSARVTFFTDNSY
Chain of Epithelial discoidin domain-containing receptor 1 (Homo sapiens) (Q08345 whole entry, the tested form may be a part): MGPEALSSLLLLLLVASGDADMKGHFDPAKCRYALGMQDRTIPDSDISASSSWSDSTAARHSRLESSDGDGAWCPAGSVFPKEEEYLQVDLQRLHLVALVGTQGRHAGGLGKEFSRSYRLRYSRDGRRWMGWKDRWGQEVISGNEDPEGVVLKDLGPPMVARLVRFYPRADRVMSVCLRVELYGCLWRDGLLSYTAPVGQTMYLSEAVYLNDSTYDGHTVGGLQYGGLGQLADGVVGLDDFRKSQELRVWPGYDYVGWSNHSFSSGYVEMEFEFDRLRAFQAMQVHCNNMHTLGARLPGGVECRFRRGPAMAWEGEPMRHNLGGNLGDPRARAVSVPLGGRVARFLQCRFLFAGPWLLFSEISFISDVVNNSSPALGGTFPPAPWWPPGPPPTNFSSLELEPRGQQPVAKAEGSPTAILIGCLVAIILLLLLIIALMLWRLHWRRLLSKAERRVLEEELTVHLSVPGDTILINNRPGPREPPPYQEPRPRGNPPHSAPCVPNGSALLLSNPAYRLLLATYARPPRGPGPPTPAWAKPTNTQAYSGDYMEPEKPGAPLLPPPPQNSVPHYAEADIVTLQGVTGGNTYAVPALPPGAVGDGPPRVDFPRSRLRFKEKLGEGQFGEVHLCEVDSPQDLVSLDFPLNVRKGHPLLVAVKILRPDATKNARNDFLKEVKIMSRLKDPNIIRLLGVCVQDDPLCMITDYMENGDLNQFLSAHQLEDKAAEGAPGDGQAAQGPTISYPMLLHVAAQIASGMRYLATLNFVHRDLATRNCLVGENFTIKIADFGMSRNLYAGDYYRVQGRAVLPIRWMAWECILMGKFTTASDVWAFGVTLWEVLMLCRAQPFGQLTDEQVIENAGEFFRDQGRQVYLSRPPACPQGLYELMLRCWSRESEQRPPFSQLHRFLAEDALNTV
Chain of Vascular endothelial growth factor receptor 1 (Homo sapiens) (P17948 whole entry): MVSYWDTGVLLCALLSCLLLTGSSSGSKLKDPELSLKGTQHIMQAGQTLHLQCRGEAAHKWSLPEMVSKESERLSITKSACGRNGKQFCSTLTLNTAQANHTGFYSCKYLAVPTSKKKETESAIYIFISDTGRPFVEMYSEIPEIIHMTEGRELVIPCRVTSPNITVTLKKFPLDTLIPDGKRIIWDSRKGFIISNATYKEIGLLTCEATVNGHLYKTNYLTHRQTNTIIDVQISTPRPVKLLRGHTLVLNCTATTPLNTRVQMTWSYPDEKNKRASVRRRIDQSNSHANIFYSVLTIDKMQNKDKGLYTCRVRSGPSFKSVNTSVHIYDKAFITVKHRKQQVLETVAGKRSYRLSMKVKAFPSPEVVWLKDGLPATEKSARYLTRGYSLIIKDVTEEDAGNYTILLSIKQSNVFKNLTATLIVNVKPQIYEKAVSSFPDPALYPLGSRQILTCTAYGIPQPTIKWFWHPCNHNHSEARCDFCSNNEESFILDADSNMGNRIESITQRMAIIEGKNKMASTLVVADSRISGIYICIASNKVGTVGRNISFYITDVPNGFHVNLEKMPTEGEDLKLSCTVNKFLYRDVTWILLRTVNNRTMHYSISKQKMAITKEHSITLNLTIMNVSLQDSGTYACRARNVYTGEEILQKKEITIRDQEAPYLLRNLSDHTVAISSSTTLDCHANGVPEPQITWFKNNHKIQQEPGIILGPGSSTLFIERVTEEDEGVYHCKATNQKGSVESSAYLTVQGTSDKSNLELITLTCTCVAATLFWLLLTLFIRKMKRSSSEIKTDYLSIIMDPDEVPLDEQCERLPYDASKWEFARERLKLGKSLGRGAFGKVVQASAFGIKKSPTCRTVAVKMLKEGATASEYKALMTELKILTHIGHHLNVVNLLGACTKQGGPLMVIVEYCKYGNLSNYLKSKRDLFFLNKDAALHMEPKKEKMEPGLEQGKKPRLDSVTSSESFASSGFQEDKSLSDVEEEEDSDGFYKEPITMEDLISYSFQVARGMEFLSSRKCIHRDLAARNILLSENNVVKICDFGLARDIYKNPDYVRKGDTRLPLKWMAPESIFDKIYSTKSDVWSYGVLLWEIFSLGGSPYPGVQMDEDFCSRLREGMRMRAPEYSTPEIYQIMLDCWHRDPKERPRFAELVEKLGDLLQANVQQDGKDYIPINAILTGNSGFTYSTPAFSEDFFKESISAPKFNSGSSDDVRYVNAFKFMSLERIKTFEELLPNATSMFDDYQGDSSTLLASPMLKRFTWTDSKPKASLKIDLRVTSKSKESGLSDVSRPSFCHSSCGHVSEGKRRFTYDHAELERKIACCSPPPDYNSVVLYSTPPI

## CCN(CC)CCCCNc1ncc2cc(-c3cc(OC)cc(OC)c3)c(NC(=O)NC(C)(C)C)nc2n1
[1]
  % of control: 100%
[2]
  % of control: 6%

## COc1cc(N(C)c2ccnc3ccc(C(F)(F)F)cc23)cc(OC)c1OC
[3]
  % binding: 78%

## C=CC(=O)Nc1ccc(C(=O)Nc2[nH]nc3c2CN(C(=O)N[C@H](CN(C)C)c2ccccc2)C3(C)C)cc1
[4]
  % of engagement: -7.3%

## Cc1cc([C@@H](C)Nc2ccccc2C(=O)O)c2nc(N3CCOCC3)cc(=O)n2c1 [AZD-6482]
[5]
  % of control: 91%

## CNC(=O)Nc1ccc(-c2nc(N3CC4CCC(C3)O4)c3cnn(C4CCC5(CC4)OCCO5)c3n2)cc1
[6]
  % of control: 69%

## COCC(=O)NC/C=C/c1ccc2ncnc(Nc3ccc(Oc4ccc(C)nc4)c(C)c3)c2c1 [CP-724714]
[7]
  % of control: 100%

## CC[C@@H](Nc1c(C#N)c(-c2ccc(-c3cccc(C)c3F)cc2)nc2cnccc12)C(=O)O [BAY-091]
[8]
  % of inhibition: 56.8%

## N#Cc1cccc(-c2c[nH]c3ncnc(N4CCOCC4)c23)c1
[9]
  % of control: 75%
[10]
  % of inhibition: 16%
